Measurements taken from patent publication US10179771B2 (GALAPAGOS NV, priority 2014, dated 2019).

target: T1, Recombinant human JAK1 catalytic domain (Homo sapiens, UniProt P23458); assay: JAK1 inhibition assay (polyGT substrate / Ulight-JAK1 peptide assay); format: biochemical; conditions: Comparative Compounds (Table VI)
T1 construct: Recombinant human JAK1 (catalytic domain, amino acids 866-1154; catalog number PV4774); purchased Invitrogen PV4774
Description: Recombinant human JAK1 catalytic domain (amino acids 850-1154; catalog number 08-144) was purchased from Carna Biosciences. 10 ng of JAK1 is incubated with 12.5 μg polyGT substrate (Sigma catalog number P0275) in kinase reaction buffer (15 mM Tris-HCl pH 7.5, 1 mM DTT, 0.01% Tween-20, 10 mM MgCl2, 2 μM non-radioactive ATP, 0.25 ρCi ^33P-gamma-ATP (GE Healthcare, catalog number AH9968) final concentrations) with or without 5 μL containing test compound or vehicle (DMSO, 1% final concentration), in a total volume of 25 μL, in a polypropylene 96-well plate (Greiner, V-bottom). After 45 min at 30° C., reactions are stopped by adding of 25 μL/well of 150 mM phosphoric acid. All of the terminated kinase reaction is transferred to prewashed (75 mM phosphoric acid) 96 well filter plates (Perkin Elmer catalog number 6005177) using a cell harvester (Perkin Elmer). Plates are washed 6 times with 300 μL per well of a 75 mM phosphoric acid solution and the bottom of the plates is sealed. 40 μL/well of Microscint-20 is added, the top of the plates is sealed and readout is performed using the Topcount (Perkin Elmer). Kinase activity is calculated by subtracting counts per min (cpm) obtained in the presence of a positive control inhibitor (10 μM staurosporine) from cpm obtained in the presence of vehicle. The ability of a test compound to inhibit this activity is determined as:
[formula] • RFU test compound=RFU determined for sample with test compound present • RFU control=RFU determined for sample with positive control inhibitor • RFU vehicle=RFU determined in the presence of vehicle
Dose dilution series are prepared for the compounds enabling the testing of dose-response effects in the JAK1 assay and the calculation of the IC50 for each compound. Each compound is routinely tested at concentration of 20 μM followed by a 1/3 serial dilution, 8 points (20 μM-6.67 μM-2.22 μM-740 nM-247 nM-82 nM-27 nM-9 nM) in a final concentration of 1% DMSO. When potency of compound series increased, more dilutions are prepared and/or the top concentration was lowered (e.g. 5 μM, 1 μM).
Recombinant human JAK1 (catalytic domain, amino acids 866-1154; catalog number PV4774) was purchased from Invitrogen. 1 ng of JAK1 was incubated with 20 nM Ulight-JAK1 (tyr1023) peptide (Perkin Elmer catalog number TRF0121) in kinase reaction buffer (25 mM MOPS pH6.8, 0.01% Brij-35, 5 mM MgCl2, 2 mM DTT, 7 μM ATP) with or without 4 μL containing test compound or vehicle (DMSO, 1% final concentration), in a total volume of 20 μL, in a white 384 Opti plate (Perkin Elmer, catalog number 6007290). After 60 min at room temperature, reactions were stopped by adding 20 μL/well of detection mixture (1× detection buffer (Perkin Elmer, catalog number CR97-100C), 0.5 nM Europium-anti-phosphotyrosine (PT66) (Perkin Elmer, catalog number AD0068), 10 mM EDTA). Readout is performed using the Envision with excitation at 320 nm and measuring emission at 615 nm (Perkin Elmer). Kinase activity was calculated by subtracting relative fluorescence units (RFU) obtained in the presence of a positive control inhibitor (10 μM staurosporine) from RFU obtained in the presence of vehicle. The ability of a test compound to inhibit this activity was determined as: Percentage inhibition=((RFU determined for sample with test compound present−RFU determined for sample with positive control inhibitor) divided by (RFU determined in the presence of vehicle−RFU determined for sample with positive control inhibitor))*100.
Dose dilution series were prepared for the compounds enabling the testing of dose-response effects in the JAK1 assay and the calculation of the IC50 for the compound. Each compound is routinely tested at concentration of 20 μM followed by a 1/5 serial dilution, 10 points in a final concentration of 1% DMSO. When potency of compound series increases, more dilutions are prepared and/or the top concentration are lowered (e.g. 5 μM, 1 μM). […]

T1 sequence (P23458 866-1154): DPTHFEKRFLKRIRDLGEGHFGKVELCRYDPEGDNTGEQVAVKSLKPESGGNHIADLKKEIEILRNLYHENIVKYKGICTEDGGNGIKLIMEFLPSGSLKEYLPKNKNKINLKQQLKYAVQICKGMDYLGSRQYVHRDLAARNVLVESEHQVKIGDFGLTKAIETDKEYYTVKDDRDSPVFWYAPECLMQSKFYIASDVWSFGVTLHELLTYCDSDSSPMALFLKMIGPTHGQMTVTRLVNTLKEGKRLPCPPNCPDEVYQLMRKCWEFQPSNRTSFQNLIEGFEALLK

Q: Which IC50 does the source give for `CN(c1cc2c(cn1)ncn2C)c1ccc(C#N)cc1F` [D, reference compound] here?
A: > 500 nM

same assay, conditions: Illustrative Compounds of the invention (Table V)

Q: With `CCc1cc(C(N)=O)ncc1N(C)c1cc(NC(=O)[C@H]2C[C@H]2F)c2ncn(C)c2c1` [Cpd 25, 4-ethyl-5-((4-((1R,2R)-2-fluorocyclopropanecarboxamido)-1-methyl-1H-benzo[d]imidazol-6-yl)(methyl)amino)picolinamide] as the compound, how does the IC50 read?
A: 0.1 to 50 nM

Q: `Cc1cc(S(C)(=O)=O)ccc1N(C)c1cc(NC(=O)[C@H]2C[C@H]2F)c2ncn(C)c2c1` [Cpd 26, (1R,2R)-N-[6-(N,2-dimethyl-4-methylsulfonyl-anilino)-1-methyl-benzimidazol-4-yl]-2-fluoro-cyclopropanecarboxamide] was tested. Which IC50 did it give?
A: 0.1 to 50 nM

Q: How did the IC50 turn out when `CCS(=O)(=O)c1ccc(N(C)c2cc(NC(=O)[C@H]3C[C@H]3F)c3ncn(C)c3c2)c(C)c1` [Cpd 27, (1R,2R)-N-[6-(4-ethylsulfonyl-N,2-dimethyl-anilino)-1-methyl-benzimidazol-4-yl]-2-fluoro-cyclopropanecarboxamide] was run?
A: 0.1 to 50 nM

Q: For `Cc1cc(C#N)ncc1Oc1cc(N)c2ncn(C)c2c1` [Cpd 28, 5-(7-amino-3-methyl-benzimidazol-5-yl)oxy-4-methyl-pyridine-2-carbonitrile], which IC50 is on record?
A: 50 to 100 nM

Q: With `CCc1cc(S(C)(=O)=O)ncc1Oc1cc(NC(=O)C2CC2)c2ncn(C)c2c1` [Cpd 29, N-[6-[(4-ethyl-6-methylsulfonyl-3-pyridyl)oxy]-1-methyl-benzimidazol-4-yl]cyclopropanecarboxamide] as the compound, how does the IC50 read?
A: 0.1 to 50 nM

Q: `Cc1cc(C(N)=O)ncc1Oc1cc(NC(=O)[C@H]2C[C@H]2F)c2ncn(C)c2c1` [Cpd 32, 5-[7-[[(1R,2R)-2-fluorocyclopropanecarbonyl]amino]-3-methyl-benzimidazol-5-yl]oxy-4-methyl-pyridine-2-carboxamide] was tested. Which IC50 did it give?
A: 50 to 100 nM

Q: For `CNc1cc(Oc2cnc(C#N)cc2C)cc2c1ncn2C` [Cpd 34, 4-methyl-5-[3-methyl-7-(methylamino)benzimidazol-5-yl]oxy-pyridine-2-carbonitrile], which IC50 is on record?
A: 100 to 500 nM

Q: How did the IC50 turn out when `Cc1cc(C#N)ncc1Oc1cc(N(C)C)c2ncn(C)c2c1` [Cpd 35, 5-[7-(dimethylamino)-3-methyl-benzimidazol-5-yl]oxy-4-methyl-pyridine-2-carbonitrile] was run?
A: > 500 nM

Q: With `Cc1cc(C#N)ncc1Oc1cc(NC(=O)N2CC(O)C2)c2ncn(C)c2c1` [Cpd 36, N-[6-[(6-cyano-4-methyl-3-pyridyl)oxy]-1-methyl-benzimidazol-4-yl]-3-hydroxy-azetidine-1-carboxamide] as the compound, how does the IC50 read?
A: > 500 nM

Q: For `Cc1cc(C#N)ncc1Oc1cc(NC(=O)N2CCOCC2)c2ncn(C)c2c1` [Cpd 37, N-[6-[(6-cyano-4-methyl-3-pyridyl)oxy]-1-methyl-benzimidazol-4-yl]morpholine-4-carboxamide], which IC50 is on record?
A: > 500 nM

Q: `Cc1cc(C#N)ncc1Oc1cc(NC(=O)NC(C)C)c2ncn(C)c2c1` [Cpd 38, 1-[6-[(6-cyano-4-methyl-3-pyridyl)oxy]-1-methyl-benzimidazol-4-yl]-3-isopropyl-urea] was tested. Which IC50 did it give?
A: 0.1 to 50 nM
